Assay [1] in a line: bead-based luminescence quenchers, dual-tagged ARNT – biochemical, AlphaScreen, cherry-pick, artefact control for ARNT-TACC3 interaction inhibitor project, dose response (AID 651705).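 Note: AlphaScreen bead proximity signal that flags compounds interfering with the detection technology; potency reflects signal decrease which marks the compound as an assay artifact.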 Type of assay: functional. Background: Bead proximity is the source of the signal in Alpha formats.
A further assay deals with Nonstructural protein 1 (Influenza A virus, UniProt Q194T2). Type of assay: functional, Influenza A virus (A/California/07/2009(H1N1)).
Sequence of Nonstructural protein 1 (Q194T2 whole entry): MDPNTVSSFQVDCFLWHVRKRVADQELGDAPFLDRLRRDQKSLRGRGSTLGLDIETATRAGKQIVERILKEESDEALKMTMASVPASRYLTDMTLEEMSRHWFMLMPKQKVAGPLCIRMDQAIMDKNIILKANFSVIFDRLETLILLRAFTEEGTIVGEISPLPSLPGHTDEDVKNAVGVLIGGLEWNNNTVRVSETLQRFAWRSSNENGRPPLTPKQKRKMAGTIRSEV
A short description of assay [2]: loss of viability in HepG2 cells – cell-based, CellTiter-Glo, cherry-picked, cytotoxicity control for Shn3 inhibitor project, dose response (AID 624134). Type of assay: functional. In general terms: ATP-based viability assays read luminescence as a measure of living cells.
Assay [3] can be described thus: reduction of Shn3 3'UTR-driven luciferase in osteoblasts – cell-based, Clone20 osteoblasts, firefly luciferase, cherry-picked, dose response (AID 624132).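 Note: firefly luciferase luminescence from reporter carrying the Shn3 3'UTR in osteoblasts.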 It is filed as functional.
Assay [4] in a line: non-specific 3'UTR reporter inhibition in Clone20-Shn3RL – cell-based, Renilla luciferase, cherry-picked, counter-screen for Shn3 inhibitor project, dose response (AID 624133). Type of assay: functional. A general note: A counterscreen serves to expose hits that act by an unwanted route or on another target.
For a further assay, the target named is Protein Wnt-3a (Mus musculus, UniProt P27467). Briefly: antagonism of Wnt3a pathway luciferase reporter – Wnt-LIGHT cells, luminescence, selectivity assay for Gli-SUFU antagonist project, dose response (AID 651570).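 Note: Wnt-LIGHT reporter cells stimulated with conditioned medium from Wnt3a-producing cells.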 It is filed as functional. Particulars: read-out: IC50_Mean.
Sequence of Protein Wnt-3a (P27467 whole entry): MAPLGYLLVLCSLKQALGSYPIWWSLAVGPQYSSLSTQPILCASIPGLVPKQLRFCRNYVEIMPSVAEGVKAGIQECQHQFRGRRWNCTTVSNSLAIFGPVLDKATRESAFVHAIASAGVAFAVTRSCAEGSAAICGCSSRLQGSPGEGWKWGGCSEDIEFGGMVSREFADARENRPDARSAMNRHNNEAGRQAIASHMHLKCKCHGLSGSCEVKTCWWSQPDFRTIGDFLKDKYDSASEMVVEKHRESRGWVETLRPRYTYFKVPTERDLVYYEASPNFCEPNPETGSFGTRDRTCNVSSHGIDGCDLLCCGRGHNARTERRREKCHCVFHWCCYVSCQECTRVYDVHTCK
Assay [5] is described as follows: THP-1 cell cytotoxicity, dose response, cytotoxicity control for non-replicating M. tuberculosis project (AID 489025). It is filed as functional.
Another assay concerns H9c2. Kind of assay: cells. The following applies: Rattus norvegicus, H9c2, Myocardium. Type of assay: functional, cell-based.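 Note: confirmatory concentration-response retest of ultra-high-throughput screening hits for modulation of myocardial damage; cell death induced by hydrogen peroxide oxidative stress; compound pretreatment for 60 min then peroxide exposure for 2 h; potency is for protecting the cells against peroxide damage rather than for killing them.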
The nature of assay [6]: HepG2 cell cytotoxicity, dose response, cytotoxicity control for non-replicating M. tuberculosis project (AID 489018). Type of assay: functional. The following applies: Mycobacterium tuberculosis.
A short description of assay [7]: Vero E6 cell cytotoxicity, dose response, cytotoxicity control for non-replicating M. tuberculosis project, secondary assay (AID 492998). Particulars: Vero C1008. It is filed as functional, VeroE6.
A further assay is described as follows: cells. It is filed as functional.
A further assay has as its target T1, Aminopeptidase N (Plasmodium falciparum FcB1/Columbia, UniProt O96935).
T1 sequence (O96935 whole entry): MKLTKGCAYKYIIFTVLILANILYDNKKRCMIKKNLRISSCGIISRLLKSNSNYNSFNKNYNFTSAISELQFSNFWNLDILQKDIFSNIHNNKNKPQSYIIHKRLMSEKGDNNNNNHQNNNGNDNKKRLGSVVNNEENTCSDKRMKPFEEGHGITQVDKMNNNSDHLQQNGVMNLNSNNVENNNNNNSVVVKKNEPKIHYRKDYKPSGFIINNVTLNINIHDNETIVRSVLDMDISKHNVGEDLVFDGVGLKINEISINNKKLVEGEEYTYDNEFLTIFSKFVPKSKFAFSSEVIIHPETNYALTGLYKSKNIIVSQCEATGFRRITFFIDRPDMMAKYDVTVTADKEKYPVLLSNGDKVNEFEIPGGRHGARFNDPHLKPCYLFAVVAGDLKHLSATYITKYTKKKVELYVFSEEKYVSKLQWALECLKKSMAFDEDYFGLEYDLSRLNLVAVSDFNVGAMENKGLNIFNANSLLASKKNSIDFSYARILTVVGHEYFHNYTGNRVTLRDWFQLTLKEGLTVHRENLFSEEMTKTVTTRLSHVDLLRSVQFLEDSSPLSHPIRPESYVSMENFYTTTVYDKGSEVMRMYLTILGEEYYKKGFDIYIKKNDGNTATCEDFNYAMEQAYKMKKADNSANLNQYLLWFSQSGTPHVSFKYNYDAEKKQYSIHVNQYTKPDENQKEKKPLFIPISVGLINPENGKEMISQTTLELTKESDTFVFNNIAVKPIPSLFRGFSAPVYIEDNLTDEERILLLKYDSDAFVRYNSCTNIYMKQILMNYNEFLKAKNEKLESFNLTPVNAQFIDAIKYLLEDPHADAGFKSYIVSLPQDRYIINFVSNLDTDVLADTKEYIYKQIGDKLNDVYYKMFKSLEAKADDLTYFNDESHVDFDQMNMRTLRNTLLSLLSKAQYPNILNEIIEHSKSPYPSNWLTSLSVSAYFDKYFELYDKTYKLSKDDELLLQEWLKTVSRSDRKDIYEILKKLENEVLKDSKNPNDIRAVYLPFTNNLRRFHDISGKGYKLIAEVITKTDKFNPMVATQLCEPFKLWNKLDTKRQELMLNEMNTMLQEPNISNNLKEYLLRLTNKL
Briefly: malaria alanyl aminopeptidase activity blockers – biochemical, fluorogenic H-Leu-NHMec substrate, 1536-well (AID 1445). Details: species or system Plasmodium falciparum 3D7, 3D7.

Assay [8] is described as follows: fluconazole-exposed Candida albicans growth modulators – fluorescence, retest, confirmation (AID 2467). Type of assay: functional, cell-based.
The next assay relates to INS1. Kind of assay: INS-1E survival protection against cytokine death – cell-based, luminescence, retest, dose response (AID 449756).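 Note: cell death triggered by IL-1 beta plus TNF-alpha plus IFN-gamma mixture; protective hits raise ATP signal compared with cytokine alone wells.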 Type of assay: functional. The following applies: Rattus norvegicus.
Assay [9] addresses Dual specificity tyrosine-phosphorylation-regulated kinase 1A (Rattus norvegicus, UniProt Q63470). It is filed as biochemical, Homo sapiens.
Assay [10] is described as follows: NIH-3T3 fibroblast cytotoxicity, dose response, cytotoxicity control, cell-based, fluorescence, Alamar Blue, secondary assay (AID 2327).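 Note: NIH-3T3 mouse fibroblasts cultured with fluconazole at 8 µg/mL.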 It is filed as functional.
Assay [11] concerns the target T2, High affinity choline transporter 1 (Homo sapiens, UniProt Q9GZV3).
T2 sequence (Q9GZV3 whole entry): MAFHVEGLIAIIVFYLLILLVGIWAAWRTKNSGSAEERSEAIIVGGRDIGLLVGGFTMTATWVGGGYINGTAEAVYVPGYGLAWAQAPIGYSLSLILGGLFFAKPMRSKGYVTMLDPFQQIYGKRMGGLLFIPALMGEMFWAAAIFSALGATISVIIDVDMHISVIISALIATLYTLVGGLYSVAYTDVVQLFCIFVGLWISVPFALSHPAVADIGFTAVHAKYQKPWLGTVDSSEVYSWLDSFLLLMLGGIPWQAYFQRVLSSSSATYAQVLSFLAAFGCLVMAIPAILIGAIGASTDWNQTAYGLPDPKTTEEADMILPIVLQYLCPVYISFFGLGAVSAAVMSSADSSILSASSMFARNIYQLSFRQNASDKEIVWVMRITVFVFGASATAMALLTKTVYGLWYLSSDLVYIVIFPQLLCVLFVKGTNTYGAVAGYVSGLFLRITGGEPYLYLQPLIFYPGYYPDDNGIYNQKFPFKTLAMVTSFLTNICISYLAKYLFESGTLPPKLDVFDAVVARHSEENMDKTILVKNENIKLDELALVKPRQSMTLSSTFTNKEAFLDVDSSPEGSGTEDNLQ
Briefly: human choline transporter blockers, potency – cell-based, 10-point CRC, membrane potential dye, dose response (AID 588401).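 Note: membrane potential dye fluorescence of choline-evoked depolarization via CHT.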 Type of assay: functional.

Assay [12] deals with T2, High affinity choline transporter 1. Briefly: human choline transporter blockers, potency – cell-based, 5-point CRC, membrane potential dye, dose response (AID 504840). It is filed as functional.
Assay [13] deals with T3, Short transient receptor potential channel 4 (Mus musculus, UniProt Q9QUQ5).
T3 sequence (Q9QUQ5 whole entry): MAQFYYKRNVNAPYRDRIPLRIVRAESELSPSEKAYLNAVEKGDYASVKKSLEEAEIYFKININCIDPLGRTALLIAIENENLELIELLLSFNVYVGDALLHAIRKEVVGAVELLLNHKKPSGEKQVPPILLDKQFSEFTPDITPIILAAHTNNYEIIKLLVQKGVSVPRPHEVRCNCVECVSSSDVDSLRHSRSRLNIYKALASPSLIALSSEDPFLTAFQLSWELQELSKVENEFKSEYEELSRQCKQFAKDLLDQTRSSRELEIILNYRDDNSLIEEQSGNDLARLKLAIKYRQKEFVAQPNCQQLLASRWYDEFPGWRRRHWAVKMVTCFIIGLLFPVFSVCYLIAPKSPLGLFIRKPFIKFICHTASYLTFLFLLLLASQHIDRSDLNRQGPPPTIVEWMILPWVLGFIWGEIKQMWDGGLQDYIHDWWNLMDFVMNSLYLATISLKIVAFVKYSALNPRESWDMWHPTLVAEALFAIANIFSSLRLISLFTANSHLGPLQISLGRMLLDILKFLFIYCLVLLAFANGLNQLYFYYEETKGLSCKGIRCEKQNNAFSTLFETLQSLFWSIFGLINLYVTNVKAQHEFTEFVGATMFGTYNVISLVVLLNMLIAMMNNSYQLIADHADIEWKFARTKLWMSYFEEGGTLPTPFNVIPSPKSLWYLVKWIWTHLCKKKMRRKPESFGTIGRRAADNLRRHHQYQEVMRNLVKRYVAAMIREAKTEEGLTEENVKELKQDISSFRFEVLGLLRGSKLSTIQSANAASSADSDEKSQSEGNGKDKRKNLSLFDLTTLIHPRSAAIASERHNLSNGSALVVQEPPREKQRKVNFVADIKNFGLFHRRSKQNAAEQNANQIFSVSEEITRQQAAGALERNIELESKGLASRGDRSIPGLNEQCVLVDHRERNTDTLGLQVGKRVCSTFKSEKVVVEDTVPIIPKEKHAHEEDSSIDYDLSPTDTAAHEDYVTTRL
Kind of assay: block of DAMGO-driven TRPC4 calcium entry – cell-based, HEK293 TRPC4/mu-opioid, Fluo-4 calcium, dose response (AID 434942).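 Note: potency of inhibitors blocking the TRPC4 calcium response.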 It is filed as functional.

The next assay has as its target Melanocortin receptor 4 (Homo sapiens, UniProt P32245). It is filed as functional, cell-based.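 Note: Cell-based assay with luminescence read-out, confirmatory dose-response testing for agonist activity of biased ligands at MC4R; human U2OS cells with tagged receptor and beta-arrestin; potency of agonists that increase receptor coupling to beta-arrestin.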
The target in assay [14] is T4, Polyadenylate-binding protein 1 (Homo sapiens, UniProt P11940). Briefly: MLLE binding blockers, Cy5 peptide tracer – biochemical, fluorescence polarization, Cy5-PAM2 peptide, secondary, miRNA deadenylation inhibitor project, dose response (AID 602260). Particulars: read-out: IC50_Mean. Type of assay: functional.
T4 sequence (P11940 whole entry, the tested form may be a part): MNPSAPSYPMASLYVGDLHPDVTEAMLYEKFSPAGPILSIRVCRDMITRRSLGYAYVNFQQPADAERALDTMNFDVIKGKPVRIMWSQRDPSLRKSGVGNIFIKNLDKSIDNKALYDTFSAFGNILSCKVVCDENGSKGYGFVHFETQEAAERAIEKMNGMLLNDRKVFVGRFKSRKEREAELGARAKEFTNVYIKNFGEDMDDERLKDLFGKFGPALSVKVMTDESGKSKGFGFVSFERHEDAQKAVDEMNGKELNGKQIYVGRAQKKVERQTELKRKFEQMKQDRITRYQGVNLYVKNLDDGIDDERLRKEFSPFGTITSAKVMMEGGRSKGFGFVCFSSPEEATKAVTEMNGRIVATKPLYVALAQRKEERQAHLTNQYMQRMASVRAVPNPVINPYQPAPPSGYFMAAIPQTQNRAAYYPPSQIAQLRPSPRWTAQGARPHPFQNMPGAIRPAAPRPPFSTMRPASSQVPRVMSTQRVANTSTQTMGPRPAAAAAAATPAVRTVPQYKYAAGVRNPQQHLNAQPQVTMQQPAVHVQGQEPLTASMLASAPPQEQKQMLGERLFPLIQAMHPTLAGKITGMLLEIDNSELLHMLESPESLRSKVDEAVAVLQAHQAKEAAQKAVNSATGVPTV
The target in assay [15] is T4, Polyadenylate-binding protein 1. Kind of assay: MLLE domain peptide-binding blockers, IC50 – biochemical, fluorescence polarization, FITC-PAM2 peptide, dose response (AID 602259). It is filed as functional. The following applies: read-out: IC50_Mean.
Assay [16] has as its target Adenosylmethionine-8-amino-7-oxononanoate aminotransferase (Mycobacterium tuberculosis, UniProt P9WQ81). Kind of assay: Mycobacterium tuberculosis BioA enzyme inhibitor Measured in Biochemical System Using Plate Reader - 2163-02_Inhibitor_Dose_CherryPick_Activity. Type of assay: functional, Mycobacterium tuberculosis UT205.
Assay [17] in a line: nonselective StAR promoter luciferase inhibitors – cell-based, luminescence, luciferase reporter, counter-screen for LRH-1 inverse agonist project, dose response (AID 651969). Type of assay: functional.
The target in a further assay is Steroidogenic factor 1 (Homo sapiens, UniProt Q13285). Briefly: Counterscreen for inverse agonists of the liver receptor homolog-1 (LRH-1; NR5A2): Luminescence-based cell-based high throughput dose response assay to identify inverse agonists of the Steroidogenic Factor 1 Nuclear Receptor (SF1; NR5A1). Type of assay: functional.
Sequence of Steroidogenic factor 1 (Q13285 whole entry): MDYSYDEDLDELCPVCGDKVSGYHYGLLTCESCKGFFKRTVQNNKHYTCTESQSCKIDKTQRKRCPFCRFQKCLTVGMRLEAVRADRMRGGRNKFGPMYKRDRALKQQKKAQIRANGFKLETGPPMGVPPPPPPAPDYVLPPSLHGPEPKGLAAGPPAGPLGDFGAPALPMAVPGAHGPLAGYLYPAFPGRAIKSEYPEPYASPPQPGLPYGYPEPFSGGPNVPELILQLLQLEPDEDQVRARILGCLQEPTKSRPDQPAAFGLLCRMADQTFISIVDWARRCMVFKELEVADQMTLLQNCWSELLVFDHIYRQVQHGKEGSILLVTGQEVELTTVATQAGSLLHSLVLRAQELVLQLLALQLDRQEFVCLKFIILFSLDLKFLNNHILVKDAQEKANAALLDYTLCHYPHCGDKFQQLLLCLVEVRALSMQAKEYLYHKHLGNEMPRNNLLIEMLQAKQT
Assay [18] concerns the target Nuclear receptor subfamily 5 group A member 2 (Homo sapiens, UniProt O00482). Type of assay: functional, cell-based.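 Note: HEK293T cells transfected with LRH-1 and a StAR promoter luciferase reporter; potency for inhibitors that lower LRH-1 driven reporter light.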
The nature of assay [19]: HEK-293T viability loss after treatment – luminescence, T-cell screen hits, cytotoxicity control for TCR NF-kB inhibitor project, dose response (AID 489026).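 Note: cells exposed to compound about 14 hours before the viability readout.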 It is filed as functional, cell-based.

Each structure is given as a SMILES string. Active and inactive are the calls of the source.

Sequence of Melanocortin receptor 4 (P32245 whole entry): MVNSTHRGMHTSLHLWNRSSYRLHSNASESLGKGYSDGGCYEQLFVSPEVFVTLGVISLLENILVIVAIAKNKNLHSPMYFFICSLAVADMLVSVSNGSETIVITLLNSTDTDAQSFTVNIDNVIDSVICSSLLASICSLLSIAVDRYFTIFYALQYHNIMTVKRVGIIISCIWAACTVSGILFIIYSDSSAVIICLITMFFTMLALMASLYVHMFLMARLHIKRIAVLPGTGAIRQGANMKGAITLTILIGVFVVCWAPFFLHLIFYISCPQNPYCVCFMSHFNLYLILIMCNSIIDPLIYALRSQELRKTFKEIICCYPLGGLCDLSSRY
Sequence of Adenosylmethionine-8-amino-7-oxononanoate aminotransferase (P9WQ81 whole entry): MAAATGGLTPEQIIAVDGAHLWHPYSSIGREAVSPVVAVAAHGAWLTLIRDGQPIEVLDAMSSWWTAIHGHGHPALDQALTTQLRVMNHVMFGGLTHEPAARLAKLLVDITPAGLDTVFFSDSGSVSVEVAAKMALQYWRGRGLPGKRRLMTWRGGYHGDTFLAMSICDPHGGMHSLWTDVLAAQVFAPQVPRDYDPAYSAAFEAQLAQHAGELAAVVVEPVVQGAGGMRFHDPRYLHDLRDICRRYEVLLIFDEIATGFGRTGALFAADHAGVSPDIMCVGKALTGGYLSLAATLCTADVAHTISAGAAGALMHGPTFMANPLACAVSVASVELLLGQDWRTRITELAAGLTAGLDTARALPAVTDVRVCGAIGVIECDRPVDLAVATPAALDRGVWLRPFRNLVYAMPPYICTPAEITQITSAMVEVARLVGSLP
Sequence of Nuclear receptor subfamily 5 group A member 2 (O00482 whole entry): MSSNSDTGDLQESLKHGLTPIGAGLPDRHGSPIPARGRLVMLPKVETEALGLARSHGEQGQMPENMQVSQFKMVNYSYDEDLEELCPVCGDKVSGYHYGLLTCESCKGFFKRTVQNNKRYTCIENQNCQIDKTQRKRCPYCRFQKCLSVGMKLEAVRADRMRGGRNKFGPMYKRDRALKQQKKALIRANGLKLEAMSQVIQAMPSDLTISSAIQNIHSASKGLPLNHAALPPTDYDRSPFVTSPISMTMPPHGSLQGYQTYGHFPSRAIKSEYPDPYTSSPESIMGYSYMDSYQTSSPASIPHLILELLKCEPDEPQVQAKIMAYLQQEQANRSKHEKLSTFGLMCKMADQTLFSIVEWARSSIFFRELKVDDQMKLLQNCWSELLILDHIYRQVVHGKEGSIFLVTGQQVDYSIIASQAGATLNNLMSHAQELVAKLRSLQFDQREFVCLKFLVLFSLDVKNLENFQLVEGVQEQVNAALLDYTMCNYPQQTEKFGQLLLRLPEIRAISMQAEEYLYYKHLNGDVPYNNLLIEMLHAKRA

As usually defined, the AC50 is the midpoint of the concentration-response curve, whichever way the signal moves. For the compound `NC(=NOC(=O)Cc1ccc([N+](=O)[O-])cc1)c1ccccn1`, the concentration at half-maximal activity (AC50) in assay [1] was 78.8 µM (active). The IC50 on Nonstructural protein 1 is 32.1 µM (active).

Take `CC(Sc1nc2ccccc2c(=O)n1C)C(=O)NC1CCCCC1C` (centres undefined): the concentration at half-maximal activity (AC50) in assay [2] is 26.2 µM (active); in [3], 3.46 µM (active); in assay [4], 3.78 µM (active). Further, on Protein Wnt-3a, the IC50 is 4.15 µM (active).

What is called CC50 is the concentration that lowers cell viability or growth by half. Consider `O=C(CCS(=O)(=O)c1ccccc1)Nc1nc(-c2ccccn2)cs1`, for which the CC50 in assay [5] is 22.5 µM (active); in assay [6], > 20 µM (active); in assay [7], 10.6 µM (active). Moreover, the IC50 with H9c2 was 35.8 µM (inactive); at Nonstructural protein 1, 15.7 µM (active); in “cells”, 4.53 µM (active). Further, the half-maximal activity concentration (AC50) in assay [1] was 118 µM (active).

By EC50 is commonly meant the concentration giving half of the maximal effect. Turning to `N#C/C(=N\Nc1cccc([N+](=O)[O-])c1)C(=O)c1ccc(Br)cc1`, the IC50 on Aminopeptidase N is 40.5 µM (active); in [11], 3.36 µM (active); in assay [12], 9.02 µM (active). For the same compound, the concentration giving a half-maximal response (EC50) in assay [8] is 4.48 µM (active); in [10], 56.9 µM (active); in [13] it was 3.35 µM (active). Further, the AC50 in the assay on INS1 is 6.82 µM (active); in [9], 2.91 µM (active).

In the case of `CC(=O)Nc1cc(-c2ccccc2N(C)C)cn2c(-c3ccc(F)c(Cl)c3)cnc12`, at Melanocortin receptor 4, the EC50 is > 89.2 µM (inactive). Besides, the IC50 in assay [14] and in assay [15] was > 66 µM (inactive) in each case.

Regarding `O=C1CCCc2c1cc(C(=O)NCc1ccco1)c(=O)n2-c1ccc(Cl)cc1`, the half-maximal activity concentration (AC50) in assay [16] was 3.08 µM (active).

With `COc1cc(C(=O)Nc2ccccc2C2COC(=O)C2=N)cc(OC)c1OC` (centres undefined), the IC50 in assay [17] was 35.9 µM (inactive); at Steroidogenic factor 1 it was 4.53 µM (active); in assay [18], 8.25 µM (active).

On to `Cc1ccc(-n2ncc3c2CC(C)(C)CC3NC(=O)CCc2cccnc2)cc1` (centres undefined), for which the AC50 in [16] is 9.11 µM (active).

On to `COc1ccc(-c2cc(NC=O)c3ncc(-c4ccccc4)n3c2)cc1OC`, for which, in the assay with H9c2, the IC50 was > 79 µM (inactive). Also, the EC50 on Melanocortin receptor 4 was > 89.2 µM (inactive).

Consider `CC(=O)c1c(C)[nH]c(C(=O)OCC(=O)Nc2ccc(C)cc2[N+](=O)[O-])c1C`, for which the AC50 in the assay on INS1 was 1.12 µM (active). The figures for the IC50 (at Protein Wnt-3a; in assay [19]) were 0.245 µM (active) and > 80 µM (inactive), respectively.

The record behind these values is ChEMBL document CHEMBL1201862, “PubChem BioAssay data set” (2004).
